Assay results taken from patent US8080264B2, “Natural composition for curing hepatitis-B, methods for making the same and pharmaceutical formulations thereof” (Himalaya Global Holdings Ltd., priority 2004, dated 2011).

System: HepG2 cells
Experiment: Hepatoprotective effects in vitro against TBH oxidative damage
Settings: MTT, TBH challenge

SMILES: CC(C)(C)OO [TBH, Tertiary Butyl Hydro peroxide]
- Survival (%): 52.53%
